Where two headings read alike, the source gives them in different places.
What was measured:
[1] = LD20 determined in the P388/0 test; type: in vivo
Description: (§1) CD2-F1 mice, of the same sex, weighing 20t3g are used for this test. Control and test animals are injected intraperitoneally with a suspension of -10^6 viable P388/0 tumor cells on day 0. In each test several dose levels which bracket the LD20 for the compound are evaluated; each dose level group contains 6 animals. The test compounds are prepared either in physiologic saline containing 0.05% Tween 80 or distilled water containing 5% dextrose and are administered intraperitoneally on days 1, 5, and 9 relative to tumor implant. Doses are on a mg/kg basis according to individual animals' body weights. The day of death for each animal is recorded, the median identified for each group and the ratios of median survival time for treated (T)/control (C) groups are calculated. The criterion for activity is T/C x 100 >120%.

[2] = system: P388/0 tumor cells; experiment: Lymphocytic Leukemia P388/0 Test; type: in vivo, CD2-F1 mice; conditions: for Optimal Dose: intraperitoneally on days 1, 5, and 9 relative to tumor implant; for T/C x 100% (Excluding 30 Day survivors): median survival time treated/control at optimal dose, i.p. days 1, 5, and 9, criterion for activity >120%
Source text: Methods for evaluating the antitumour activity of these compounds are essentially those used in the Tumor Panel by the Developmental Therapeutics Program, Division of Cancer Treatment, National Cancer institute, A. Goldin, et al., Methods in Cancer Research, Vol. XVI, p. 165, Academic Press (1979). Some modifications, in dose level and schedule have been made to increase the testing efficiency.
as §1

[3] = system: Saccharomyces cerevisiae; experiment: In vitro antifungal activity, minimum fungistatic concentration; type: cell-based; conditions: read-out: Minimum Fungistatic Concentration
Description: The minimum fungistatic concentrations of compounds of the formula (I) against various fungi were obtained using standard techniques. The tests were carried out in either medium A or medium B (see below) and the standard used in each instance was Miconazole nitrate.

[4] = intraperitoneally on days 1, 5, and 9, tumor-bearing mice

SMILES	LD20 [1, 4]	Optimal Dose [2]	T/C x 100% (Excluding 30 Day survivors) [2]	LD20 ([1]; mouse, in vivo, ip)	MIC [3]	MIC ([3]; medium A or medium B)
CC(CO)(CO)NCc1c2ccccc2cc2c1ccc1ccccc12 [Example 1, 2-((7-Benz[a]anthracenylmethyl)amino)-2-methyl-1,3-propanediol methanesulfonate]	180 mg/kg	220 mg/kg	+270%			
CC(CO)(CO)NCc1c2ccccc2c2ccc3cccc4ccc1c2c43 [Example 2, 2-[(Benzo[a]pyren-6-ylmethyl)amino]-2-methyl-1,3-propanediol methanesulfonate]	100 mg/kg	111 mg/kg	+204%			
CC(CO)(CO)NCc1c2ccccc2cc2cc3ccccc3cc12 [Example 3C, 2-[(5-naphthacenylmethyl)amino]-2-methyl-1,3-propanediol methanesulfonate]		60 mg/kg	+195%	50 mg/kg		
CC(CO)(CO)NCc1c2c(cc3ccccc13)Cc1ccccc1-2 [Example 4B, 2-[(11H-Benzo[b]fluoren-5-ylmethyl)amino]-2-methyl-1,3-propanediol methanesulfonate]		225 mg/kg	+280%	300 mg/kg		
CC(CO)(CO)NCc1cc2ccc3ccccc3c2c2ccccc12 [Example 5B, 2[(Benzo[c]phenanthren-5-ylmethyl)amino]-2-methyl-1,3-propanediol methanesulfonate]	10 mg/kg	15 mg/kg	+140%		≤ 0.4 µg/mL	
CC(CO)(CO)NCc1c2ccccc2c(Cl)c2cc3ccccc3cc12 [Example 6B, 2-[(12-Chloro-5-naphthacenylmethyl)amino]-2-methyl-1,3-propanediol methanesulfonate]		75 mg/kg	+150%	70 mg/kg		
CC(CO)(CO)NCc1c2ccccc2c(Cl)c2cc3ccccc3cc12.Cl [Example 6C, 2-[(12-chloro-5-naphthacenylmethyl)amino]-2-methyl-1,3-propanediol hydrochloride]	70 mg/kg	40 mg/kg	+150%			
Clc1ccc(COC(Cn2ccnc2)c2ccc(Cl)cc2Cl)c(Cl)c1 (centres unmarked) [Miconazole Nitrate, Miconazole nitrate, reference compound]						≤ 0.4 µg/mL
